The text below walks through data of US20120329761A1, “USE OF TIGECYCLINE FOR TREATMENT OF CANCER” (UNIVERSITY HEALTH NETWORK, priority 2010, published 2012).

Molecules are shown by their SMILES. A value given as a limit tells only on which side of the number the result lay.

The conditions of data set [1]: cited from earlier work.
Data set [2] has as its system bacterial protein synthesis. Particulars: cited from earlier work.
For data set [3], the system named is primary normal hematopoietic cells (PBSC). The data set can be described thus: Cell death by Annexin V staining, 48 hours. The class given is cell-based, human. Particulars: normal PBSC from G-CSF mobilized donors, n=5, 48 hours. As for the experimental part:
(§1) FIG. 2. Tigecycline induces cell death and inhibits clonogenic growth in primary AML cells preferential over normal hematopoietic cells. Mononuclear cells from peripheral blood of leukemia patients (blast count >80%) and normal G-CSF expanded donors was treated with increasing concentrations of tigecycline for 48 hours. Cell viability was measured by Annexin-PI flow cytometry staining. Cell viability is expressed as a mean percentage plus or minus SD (n=3) relative to DMSO-treated cells. Mononuclear cells from primary AML patient samples (A, B) and normal peripheral blood cells (C) were plated in methylcelluose with 5 μM of Tigecycline. (D) Colony forming units were counted at 7 days (AML) and 14 days (Normal) post plating. Percent colony formation is represented compared to DMSO-treated plated cells.
(§2) Primary human acute myeloid leukemia (AML) samples were isolated from fresh peripheral blood samples of consenting patients with AML. Similarly, primary normal hematopoietic cells were obtained from healthy consenting volunteers donating peripheral blood […] (PBSC) for stem cell transplantation. The mononuclear cells were isolated from the samples by Ficoll density centrifugation. Primary cells were cultured at 37° C. in IMDM supplemented with 20% FCS, 1 mM of L-glutamine and appropriate antibiotics. […]
(§3) Cell growth and viability was assessed by the MTS assay (Promega, Madison, Wis.) according to the manufacturer's instructions. Apoptosis and cell death was measured by Annexin V-fluoroscein isothiocyanate (FITC; Biovision Research Products, Mountain View, Calif.), propidium iodide staining and flow cytometry according to the manufacturer's instructions and as previously described^30.
(§4) Given the cytotoxicity of tigecycline towards leukemia cell lines, the ability of tigecycline to induce cell death in primary acute myeloid leukemia (AML) patient samples and normal hematopoietic cells was compared and evaluated. […] After incubation, cell viability was measured by Annexin V staining.

For data set [4], the system named is primary AML patient samples. Briefly: Cell death by Annexin V staining, 48 hours. It is filed as cell-based, human. The protocol:
as §1, §2, §3, §4

Regarding `CN(C)c1cc(NC(=O)CNC(C)(C)C)c(O)c2c1C[C@H]1C[C@H]3[C@H](N(C)C)C(O)=C(C(N)=O)C(=O)[C@@]3(O)C(O)=C1C2=O` [tigecycline], the toxicity entry in data set [1] (50 mg intravenously every 12 hours) is “without significant toxicity”. Besides, in data set [1] (humans), the “half life in humans” value is 27 h. Moreover, the tolerability result in data set [1] (intravenous doses of 300 mg) was “well tolerated save for mild nausea”. Moreover, the “inhibition of bacterial protein synthesis, fold greater than minocycline” value in data set [2] (relative to minocycline) is on record as 3 fold. Further, the “inhibition of bacterial protein synthesis, fold greater than tetracycline” value in data set [2] (relative to tetracycline) is recorded as 20 fold. Further, the LD50 in data set [3] is above 10 µM; in data set [4] (more resistant group of patients, n=7, 48 hours), above 9 µM; in data set [4] (sensitive subset of leukemia patients, n=13, 48 hours), 5 µM.
